Assay results from US11691992B2 (Anacor Pharmaceuticals, Inc., priority 2017, dated 2023).

Tests used:
Format in all cases: cell-based
[1] = system: luciferase-expressing L. major parasites developing intracellularly inside RAW 264.7 macrophages; assay: Leishmania major intracellular amastigote assay in RAW 264.7 macrophages (luciferase); conditions: RAW264.7, 96 hours, read-out: IC50: I Org. intracellular amastigote Growth L. major, 4 d
Outline: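 RAW 264.7 macrophages infected overnight with luciferase-expressing L. major promastigotes, washed of extracellular parasites, then exposed to two-fold compound dilutions (final 0.5-10,000 ng/ml) for 96 h at 37° C, 5% CO2. Luciferin luminescence after 30 min; IC50 by sigmoidal variable-slope regression.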

[2] = system: bloodstream-form trypanosome T. brucei brucei 427 strain; assay: Trypanosoma brucei brucei high-throughput screening assay (resazurin); conditions: 72 h, read-out: IC50: I Org. Growth T. brucei brucei SBRI 427, 3 d [uM]
Experimental: Example 105. Trypanosoma brucei brucei High-Throughput Screening Assay Procedure
All experiments were conducted with the bloodstream-form trypanosome T. brucei brucei 427 strain obtained from Seattle Biomedical Research Institute (Seattle, Wash.). Parasites were cultured in T-25 vented cap flasks and kept in humidified incubators at 37° C. and 5% CO2. The parasite culture media was complete HMI-9 medium containing 10% FBS, 10% Serum Plus medium and penicillin/streptomycin. To ensure log growth phase, trypanosomes were sub-cultured at appropriate dilutions every 2-3 days. Approximately 50 microliters of log phase cultures were diluted 1:10 in HMI-9 and 10 μL of the diluted culture was removed and counted using a hemocytometer to determine parasite concentration. Parasites were diluted by addition of an appropriate volume of HMI-9 to achieve a final parasite concentration of 2×10^5/mL. Compounds of the invention to be tested were serially diluted in DMSO and 0.5 μL added to 49.5 μL HMI-9 in triplicate 96-well plates using a Biomek NX liquid handler. Parasites from the diluted stock were added to each well (50 μL) using a Multidrop 384 dispenser to give a final concentration of 1.0×10^5/ml parasites in […] for DMSO. Trypanosomes were incubated with compounds for 72 hrs at 37° C. with 5% CO2. Resazurin (20 μL of 12.5 mg/ml stock) from Sigma-Aldrich was added to each well and plates were incubated for an additional 2-4 hrs. Assay plates were read using an EnVision plate reader at an excitation wavelength of 544 nm and emission of 590 nm. Triplicate data points were averaged to generate sigmoidal dose response curve and determine IC50 values using XLfit curve fitting software from IDBS (Guildford, UK).

[3] = system: TdTomato-modified T. cruzi (CL strain) in Vero cells; assay: In vitro IC50 measurement of T. cruzi amastigote killing using TdTomato-modified T. cruzi (CL strain); conditions: Trypanosoma cruzi, 72 h, fluorescence, read-out: IC50: I Org. amastigote Growth T. cruzi CL TdTomato, 3 d
Outline: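 Vero cells were infected with tdTomato-expressing CL-strain parasites and dosed at 5 uM–5 nM. Fluorescence (ex 544/em 612 nm) was read at day 0 and again after 72 h at 37 °C, with day 0 values subtracted. IC50 and IC90 came from nonlinear regression.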

[4] = system: T. cruzi Tulahuen strain C2C4 containing the β-galactosidase (Lac Z) gene in rat skeletal myoblasts (L-6 cells); assay: Trypanosoma cruzi C2C4 screening assay; conditions: L6, 96 h, read-out: SCYNEXIS IC50: I Org. Growth T. cruzi Tulahuen C2C4 Lac Z, 4 d [uM]
Experimental: Example 113: Trypanosoma cruzi C2C4 Screening Assay Procedure
Rat skeletal myoblasts (L-6 cells) were seeded in 96-well microtiter plates at 2×10^3 cells/well in 100 μL RPMI 1640 medium with 10% FBS and 2 mM L-glutamine. After 24 h the medium was removed and replaced by 100 μL per well containing 5×10^3 trypomastigote forms of T. cruzi Tulahuen strain C2C4 containing the β-galactosidase (Lac Z) gene (Buckner, et al., Antimicrobial Agents and Chemotherapy, 40: 2592-2597 (1996)). After 48 h the medium was removed from the wells and replaced by 100 μL fresh medium with or without a serial drug dilution of the seven 3-fold dilution steps covering a range from 90 to 0.123 μg/mL. After 96 h of incubation the plates were inspected under an inverted microscope to assure growth of the controls and sterility. The substrate (50 μL) chlorophenol red-β-D-galactopyranoside (CPRG, Roche Diagnostics, Ltd) in 0.25% Nonidet P-40/PBS was added to all wells and a color reaction developed within 2-6 h which was read photometrically at 540 nm. Data were transferred into the graphic program Softmax Pro (Molecular Devices), which calculated IC50 values.

Row | Structure (SMILES) | IC50 [1] [nM] | IC50 [2] [µM] | IC50 [3] [nM] | IC50 [4] [µM]
1 | O=C(Nc1ccc2c(c1)B(O)OC2)c1cn(-c2ccccc2)nn1 [Example 66, N-(1-hydroxy-1,3-dihydrobenzo[c][1,2]oxaborol-6-yl)-1-phenyl-1H-1,2,3-triazole-4-carboxamide] | ≤ 1000 | 0.075 to 0.15 | < 600 | 0.06 to 0.1
2 | Cc1c(C(=O)Nc2ccc3c(c2)B(O)OC3)nnn1-c1ccc(F)cc1 [Example 86, 1-(4-fluorophenyl)-N-(1-hydroxy-1,3-dihydrobenzo[c][1,2]oxaborol-6-yl)-5-methyl-1H-1,2,3-triazole-4-carboxamide] |  | 0.075 to 0.15 | 600 to 1000 | 0.11 to 1
